The values below come from paper PMC5797143, “Epigenetic modulation of inflammation and synaptic plasticity promotes resilience against stress in mice” (Nature Communications, 2018).

Assay [1] relates to Toll-like receptor-4 mediated signaling pathways (JNK, p38, ERK, AKT). In words: Multiplex ELISA of phosphorylated signaling proteins in PBMCs after LPS. In kind it is cell-based, mouse. The protocol: To investigate how DHCA may attenuate IL-6 generation, we tested the effect of DHCA on Toll-like receptor-4 mediated signaling pathways. PBMCs were pretreated with DHCA and stimulated with LPS using the same protocol as during screening. Samples were taken at 0, 30 min, 60 min, 6 h and 16 h following LPS stimulation and cell lysates were subjected to a multiplex ELISA assay. […] Based on evidence that DNA methylation at a single CpG in the human IL-6 promoter region effectively alters IL-6 expression, we next tested whether DHCA can modulate IL-6 gene expression through methylation mechanisms. We treated PBMC cells with DHCA and measured the expression of enzymes essential for DNA methylation/demethylation. […] To investigate how methylation influences IL-6 gene expression, we employed the CpG-free luciferase reporter system. We cloned a ~280 bp CpG rich DNA segment from the mouse IL-6 promoter into a promoterless CpG-free reporter construct and transfected into N2a cells. We found the CpG-rich IL-6 promoter segment presented no inherent promoter activity as reflected by no differences in luciferase activity compared to the control construct (Fig. 2f). […] We then cloned CpG rich DNA segments from IL-6 introns 1, 3 or 4 into the CpG-free luciferase reporter construct with a minimal EF1 promoter and no enhancer activity. […] In contrast, the CpG-rich region of IL-6 intron 4 presented no observable enhancer activity (Fig. 2g). […] To test whether DHCA may influence the expression of other pro-inflammatory factors, we measured the level of secreted cytokines following LPS stimulation (Supplementary Fig. 3).
Luminex xMAP multiplexed immunoassays were used to evaluate the levels of phosphorylated proteins in PBMCs pre-treated with DHCA for 16 h followed by LPS stimulation. PBMCs were washed once with PBS and immediately lysed with MilliplexMAP Cell Signaling Universal Lysis Buffer and applied to the assay following manufacturer’s instruction (EMD Millipore). The phosphoprotein analytes used were: AKT (Ser473), JNK (Thr183/Tyr185), ERK (Thr185/Tyr187), p38 […] (Millipore, MA). Multiplex MAP mouse cytokine/chemokine Panel (EMD Millipore) was used to measure the levels of 32 cytokines/chemokines in mouse plasma or PBMC cultures.
Background: An ELISA detects its analyte on a solid surface through an enzyme-linked reagent.

The test system of the next assay is Rac1. In words: In vivo dose finding: Rac1 mRNA in the NAc. On the set-up: species or system mouse. As to conditions: 50 ng to 5 mg/kg-BW/day in drinking water, 2 weeks; strongest at 500 ng and 5 µg/kg-BW/day. Here is the method:
We then initiated dose response and safety studies in mice to determine testing dosages and safety of DHCA and Mal-gluc. C57BL/6 mice were treated with either DHCA (doses ranging from 50 µg to 50 mg/kg-BW/day) or Mal-gluc (doses ranging from 50 ng to 5 mg/kg-BW/day) for 2 weeks to simulate long-term administration. Mice treated with DHCA were challenged with intraperitoneal (i.p.) injection of 0.4 mg/kg-BW LPS and plasma levels of IL-6 were measured 6 h post injection. […] Following common discovery-stage practices, we measured the plasma levels of alkaline phosphatase (ALP), aspartate aminotransferase (AST), and alanine aminotransferase (ALT) for liver function and blood urea nitrogen (BUN) for renal function.
Male C57BL/6 J mice (8-week-old) were placed on a polyphenol-free AIN-93M diet and treated with various doses of DHCA (vehicle, 50 µg, 500 µg, 5 mg, and 50 mg/kg-BW/day), delivered through their drinking water for two weeks. […]
Total RNA from MSN-enriched cultures or brain NAc was isolated using the RNeasy Mini Kit (Qiagen, Valencia, CA, USA) and reverse transcribed. Gene expression was measured in four replicates by quantitative RT-PCR using Maxima SYBR Green master mix (Fermentas) in ABI Prism 7900HT. […]

The mark [2] stands for this setting: 30 min and 60 min following LPS, no further changes at 6 h and 16 h.
[3] abbreviates: PBMCs, DHCA pretreatment, 0, 30 min, 60 min, 6 h, 16 h after LPS.

Consider `O=C(O)CCc1ccc(O)c(O)c1` [DHCA, 3(3,4-dihydroxy-phenyl) propionic acid], for which, in assay [1] (setting [2]), the “decrease in AKT activation” value is on record as ~ 10% and the “decrease in ERK activation” value is recorded as ~ 10%. In addition, in assay [1] (setting [3]), the “activation (phosphorylation) of JNK” value is “no effect” and the “activation (phosphorylation) of p38” value is “no effect”.

`COc1cc(-c2[o+]c3cc(O)cc(O)c3cc2O[C@@H]2O[C@H](CO)[C@@H](O)[C@H](O)[C@H]2O)cc(OC)c1O` [Mal-gluc]: in the assay on Rac1, the “Rac1 mRNA in the NAc” value is “dose-response increase of Rac1 expression”.
